{"source": "patent US20210380722A1", "about": "“COMPOSITIONS AND METHODS FOR THE TREATMENT OF MAJOR DEPRESSIVE DISORDER” (Snake River Bioscience, Inc., priority 2019, published 2021)", "key": {"hippocampal neurons": {"tested_on": "hippocampal neurons", "conditions": "cited from earlier work; for autophagy: Gulbins et al., Molecular Psychiatry (2018)"}, "wildtype mice [1]": {"tested_on": "wildtype mice", "test": "C16-ceramide loaded plasma or exosomes injected i.v. into wildtype mice", "assay_type": "in vivo", "conditions": "plasma or exosomes of untreated mice loaded with 2 μM C16-ceramide, FIG. 4e", "method": "Plasma or exosomes were loaded with C16 ceramide or deuterated C16 ceramide (Avanti Polar Lipids, USA) by incubation of purified exosomes with 2 μM C16 ceramide or 2 deuterated C16 ceramide in 100 μL PBS for 60 min at 37° C. Plasma samples were directly injected i.v. into healthy mice. Exosomes were centrifuged again at 100,000×g for 70 min, the supernatant was discarded, resuspended in PBS and injected i.v. into healthy mice.\nFor BrdU staining, mice were injected with BrdU 4 times, once every 2 h. Mice were sacrificed 24 h after the first injection and brains were prepared as above. […]\nBehavioral testing was performed between 3:00 p.m. and 6:00 p.m. under diffuse indirect room light. […] The time was recorded during which the mice explored a new environment before they began eating. […] The time that the mouse spent in each of the separate compartments was recorded. […] In the coat state test, the appearance of the coat (groomed vs unkempt coat) was scored on the head, neck, back, and ventrum with either a zero for normal status or a 1 for unkempt status. […] After 24 h the mice were again placed in a water-filled cylinder for 6 min, and the time of mobility or immobility during the last 4 min of the second trial was recorded. […]"}, "untreated mice": {"tested_on": "untreated mice", "test": "high dose of corticosterone in untreated mice, symptoms of major depression after 24 h", "assay_type": "in vivo", "conditions": "1 mg/kg, data not shown", "method": "To exclude the possibility that investigators were measuring the effects of corticosterone that might have remained in the plasma of these mice, untreated mice were injected with a high dose of corticosterone (1 mg/kg) and the presence of biochemical and behavioral symptoms of major depression after 24 h were assessed."}, "wildtype mice [2]": {"tested_on": "wildtype mice", "test": "ceramide concentrations in exosomes from blood plasma of stressed mice (mass spectrometry, kinase assay)", "assay_type": "in vivo", "conditions": "corticosterone via drinking water 120 mg/L for 7 days; FIG. 1c", "method": "Corticosterone (Sigma, St. Louis, Mo.) was administered to mice via the drinking water at 120 mg/L for 7 days. In the chronic unpredictable stress model (CUS), the mice were challenged with unpredictable environmental stress for 8 days, i.e., a reversal of the light/dark cycle, 3 h of 45° tilting of the cage twice each week, shaking at 125 rpm, food deprivation for 14 h, predator sounds (15 min) or wet cages (1 h) with two forms of stress per day in a randomized (unpredictable) order. Blood was collected from the heart into heparin-coated needles and tubes immediately after sacrifice by cervical dislocation. Blood plasma was centrifuged at 3500 rpm for 5 min at 4° C. in an Eppendorf centrifuge. […]\n10 μL of blood plasma or of resuspended exosomes (corresponding to 50 μL plasma) was added to 190 μL H2O and extracted in 600 μL CHCl3:CH3OH:1N HCl (100:100:1, v/v/v). […] Ceramide amounts were determined by comparison with a standard curve; C16 to C24 ceramides were used as substrates.\nSamples were subjected to lipid extraction with 1.5 mL methanol/chloroform (2:1, v:v). […] Dried residues were reconstituted in 200 μL of a 95:5 (v:v) mixture of high-performance liquid chromatography (HPLC) eluents B:A (see below), thoroughly vortexed for 10 min at 1,500 rpm, centrifuged at 2,200×g for 10 min at 4° C., and subjected to mass spectrometric sphingolipid quantification. […]"}, "sphingomyelin synthases": {"tested_on": "sphingomyelin synthases", "conditions": "direct inhibition of sphingomyelin synthases; cited from earlier work"}}, "data": [{"compound": "CNCCC(Oc1ccc(C(F)(F)F)cc1)c1ccccc1", "note": "(centres unmarked) [fluoxetine]", "values": [{"measurement": "autophagy", "setting": "hippocampal neurons", "value": "induce autophagy in hippocampal neurons"}]}, {"compound": "CCCCCCCCCCCCC/C=C/[C@@H](O)[C@H](CO)NC(=O)CCCCCCCCCCCCCCC", "note": "[C16-ceramide, C16 ceramide]", "values": [{"measurement": "induction of MDD (behavioral changes and neuronal proliferation)", "setting": "wildtype mice [1]", "value": "sufficient to induce MDD within 24 h"}]}, {"compound": "C[C@]12C[C@H](O)[C@H]3[C@@H](CCC4=CC(=O)CC[C@@]43C)[C@@H]1CC[C@@H]2C(=O)CO", "note": "[glucocorticosterone, Corticosterone]", "values": [{"measurement": "induction of MDD (biochemical and behavioral symptoms of major depression)", "setting": "untreated mice", "value": "not sufficient to induce MDD"}, {"measurement": "ceramide concentrations in exosomes in the blood plasma", "setting": "wildtype mice [2]", "value": "marked increase in ceramide concentrations"}]}, {"compound": "CN(C)CCC=C1c2ccccc2CCc2ccccc21", "note": "[amitriptyline]", "values": [{"measurement": "autophagy", "setting": "hippocampal neurons", "value": "induce autophagy in hippocampal neurons"}]}, {"compound": "S=C(S)OC1CC2CC1C1CCCC21", "note": "(centres unmarked) [D609]", "values": [{"measurement": "autophagy", "setting": "hippocampal neurons", "value": "activation of autophagy"}, {"measurement": "ceramide in the endoplasmic reticulum (ER)", "setting": "hippocampal neurons; direct inhibition of sphingomyelin synthases", "value": "rapid accumulation of ceramide in the ER"}, {"measurement": "stress-induced MDD", "setting": "sphingomyelin synthases", "value": "rapid reversal of stress-induced MDD"}]}]}
